According to US7939568B2, “Use of a composition comprising vitamin K1 oxide or a derivative thereof for the treatment and/or the prevention of mammal dermatological lesions” (Auriga International S.A., priority 2003, dated 2011):

Legend:
[1] = Transformation in presence of light; type: physicochemical
Excerpt: The improved stability of vitamin K1 oxide compared to vitamin K1, reduces also unexpectedly the side effects of a cosmetic composition. […] Such transformation of vitamin K1 oxide is not observed in the presence of light and these side effects are not present when the cosmetic composition according to the invention is applied upon mammal skin.

[2] = Formation of chromophoric group on mixing with retinol; type: physicochemical; settings: mixing with retinol (or retinol palmitate)

SMILES	transformation into Menadione (vitamin K3) and 1.4.Naphtoquinone [1]	formation of chromophoric group [2]
CC1=C(C/C=C(\C)CCC[C@H](C)CCC[C@H](C)CCCC(C)C)C(=O)c2ccccc2C1=O [vitamin K1, 2-methyl 3-phytyl-1,4-naphtoquinone]	transformed into Menadione (vitamin K3) and 1.4.Naphtoquinone	
CC(=CCC12OC1(C)C(=O)c1ccccc1C2=O)CCCC(C)CCCC(C)CCCC(C)C (stereo not drawn) [vitamin K1 oxide]	not observed	does not allow the formation of chromophoric group
